# Test results from US20110207694A1, “MAMMALIAN HYPOTHALAMIC NUTRIENT MODULATION OF GLUCOSE METABOLISM” (priority 2005, published 2011).
# Tests used:
# [1] = tested on: phospho-ACC, ACC, FAS, MTP and ApoB; test: Western blot of liver proteins after ICV glucose; type: in vivo, rat
# Description: Western blot analyses. Liver tissue (50-100 mg) was homogenized in a detergent-based lysis buffer (M-PER, Pierce) supplemented with protease and phosphatase inhibitors. The extracts were incubated on ice for 20 min and then centrifuged at 15,000×g to remove tissue debris; the supernatants were saved and frozen at −80 C until analysis. Fifty μg of protein were heat-denatured in SDS-PAGE sample buffer and resolved on denaturing (SDS) 10% polyacrylamide gels (SDS-PAGE). Fractionated proteins were electrophoretically transferred to nitrocellulose membranes by standard procedures. Membranes were immunoblotted with the appropriate primary antibodies and immune complexes were detected by enhanced chemiluminescence (ECL) (Western Lightning, Perkin Elmer Life Sciences) using horseradish peroxidase conjugated secondary antibodies. Bands were imaged on X-ray film and digitized for quantification using ImageQuant software (Molecular Dynamics). β-tubulin was used for loading normalization. Antibodies. Rabbit antibodies to acetyl Co-A carboxylase and phospho-acetyl Co-A carboxylase (Ser79) were from Cell Signaling Technology (Beverly, Mass.); fatty acid synthetase (FAS) and microsomal triglyceride transfer protein (MTP) antibodies were from BD Biosciences Pharmingen (San Jose, Calif.); cholesterol hydroxylase 7α (CYP7A1) and ApoB-100 antibodies were from Santa Cruz Biotechnology (Santa Cruz, Calif.); mouse monoclonal β-tubulin antibodies were obtained from Covance Research Products (Berkeley, Calif.).
# male Sprague-Dawley rats [2] = test: ICV infusion: plasma triglycerides and metabolites under basal and pancreatic clamp conditions; type: in vivo, rat
# From the text: Animal preparation. We studied 10-week-old male Sprague-Dawley rats. Rats underwent stereotaxic surgery to indwell single catheters in the third cerebral ventricle {intracerebroventricular (ICV)(Obici et al., 2001) or bilateral catheters into the mediobasal hypothalamus (Lam et al., 2005c). One week later, we placed indwelling catheters in the internal jugular vein and carotid artery for sampling and infusion during the in vivo experiments (Obici et al., 2001). Recovery from surgery was monitored by measuring daily food intake and weight gain for 4-5 days after surgery.
# Infusion protocols. The in vivo infusion experiments lasted a total of 360 min, and the experiments were carried out in rats that had their food removed ˜5 h before the experiments. Thus, at the time of the experiment, the rats are in post-absorptive state since their stomach should be completely emptied by 5 h fasting. […] This ICV glucose protocol physiologically elevate hypothalamic glucose concentration by ˜70% as previously described (Lam et al., 2005b) and is similar to that induced by a doubling of the circulating glucose levels (Lam et al., 2005b). During the ICV infusions, we monitored the plasma metabolite levels under pre-infused (0 min), basal (180-240 min) and pancreatic clamp (300-360 min) conditions. […] A basal insulin-pancreatic clamp was performed in the final 2 h (240-360 min) of the study as previously described (Lam et al., 2005b). In brief, a continuous infusion of insulin (1 mU/kg.min) and somatostatin (3 μg/kg.min) was administered, and a variable infusion of a 25% glucose solution was started and periodically adjusted to clamp and maintain the plasma glucose concentration at ˜8 mM. […] To examine the time-dependent effects of ICY glucose on plasma triglycerides, ICY (5 μl/h) 2 mM D-glucose or mannitol was administrated for 210 min and plasma triglyceride levels were monitored at 0, 20, 60, 120, 180, 210 min. […] Plasma triglycerides were monitored under basal, pancreatic clamp and tyloxapol-treated conditions. At the end of the infusion experiments, rats were anesthetized and tissue samples were freeze-clamped in situ with aluminum tongs pre-cooled in liquid nitrogen. All tissue samples were stored at −80° C. for subsequent analysis.
# Biochemical analyses. Plasma glucose concentrations were measured by the glucose oxidase method (Glucose Analyzer II, Beckman Instruments, Inc., Fullerton, Calif.). […] FFA concentrations were determined by an enzyme assay in accordance with the manufacturer's specifications (Waco Pure Chemical Industries. Osaka. Japan). Plasma insulin concentrations (with rat and porcine insulin standards) were measured by radioimmunoassay (RIA). Plasma adiponectin concentrations were measured by RIA (Linco Inc., Austin, Tex., USA). Liver triglycerides were measured as described (Muse et al., 2004).
# Calculations. Statistical analysis was done by unpaired Student's t test or analysis of variance as appropriate. Data are presented as means±SEM. All values were collapsed into a single value for each animal prior to the calculation of mean. The time period 180-240 min was averaged for the basal and the time period 300-360 min was averaged for the clamp conditions.
# mediobasal hypothalamus = test: Intrahypothalamic (IH) infusion of glucose or DCA with pancreatic basal insulin clamp; type: in vivo, rat; details: IH administration
# From the text: FIG. 3 is a diagram of experimental protocols (Panel (a)) and graphs of results of those experiments utilizing intrahypothalamic (IH) infusions of glucose.
# FIG. 4 is a schematic and graphs of experimental results showing the effect of dichloroacetate (DCA), an inhibitor of pyruvate dehydrogenase kinase, having the effect of activating pyruvate dehydrogenase (PDH). The schematic of Panel (a) illustrates the PDH activation effect of DCA in the context of glucose metabolism, the TCA cycle, and nervous system cells.
# We have localized the effect of glucose on liver glucose production to the mediobasal hypothalamus. This was accomplished using bilateral intraparenchymal (rather than ICY) delivery of both glucose and the KATP blocker GLI.
# male Sprague-Dawley rats [3] = details: ICV 2 mM glucose, 5 μl/h (Lam et al., 2005b); cited from earlier work
# high fat-fed rats = test: Central glucose or lactate in regular chow vs 3-day high fat diet-fed animals: glucose production; type: in vivo, rat; details: central administration
# From the text: The latter is an excellent model for diet-induced insulin resistance.
# [4] = central administration of glucose
structure (smiles),measurement,setting,value
"O=C[C@H](O)[C@@H](O)[C@H](O)[C@H](O)CO [glucose, D-glucose]",hepatic content of lipogenic enzymes acetyl-CoA carboxylase and fatty acid synthase,[1]; ICV glucose,failed to alter the hepatic content of these lipogenic enzymes
same,expression of MTP in the liver,[1]; [4],not affected
same,hepatic ApoB48 levels,[1]; [4],not decreased
same,decrease in plasma triglyceride levels,"male Sprague-Dawley rats [2]; ICV glucose, within 2 h, fraction",⅓
same,maximal hypolipidemic effect (decrease in plasma triglycerides),"male Sprague-Dawley rats [2]; ICV glucose, within 3 h",~75%
same,plasma free fatty acids levels,male Sprague-Dawley rats [2]; ICV infusion,did not modify plasma fatty acids levels
same,plasma triglyceride levels,"male Sprague-Dawley rats [2]; ICV infusion (glucose 2 mM, L-lactate 5 mM)",markedly decreased the circulating levels of triglycerides
same,circulating glucose levels,mediobasal hypothalamus,lowered circulating glucose levels
same,glucose production,mediobasal hypothalamus; clamp,suppressed liver glucose production
same,glucose utilization,mediobasal hypothalamus; clamp,unchanged
same,exogenous glucose infusion rate to maintain euglycemia,mediobasal hypothalamus; pancreatic basal insulin clamps,increased exogenous glucose infusion rate
same,rise in hypothalamic glucose levels,male Sprague-Dawley rats [3],~70%
same,glucose production,high fat-fed rats; 3-day high fat diet-fed animals,severely impaired
same,glucose production,high fat-fed rats; regular chow animals,lowered glucose production
